According to patent US20240317736A1, “DEUTERATED DERIVATIVE AS ATX INHIBITOR, AND APPLICATION THEREOF” (Xizang Haisco Pharmaceutical Co., Ltd., priority 2020, published 2024):
Like-named read-outs stand apart in the source and are kept apart here.

Tests used:
[1] = Pharmacokinetic test in dogs; type: in vivo, male beagles; settings: male, beagle, dog, plasma; for Cmax: read-out: C0 or Cmax
Procedure: Test objective: the pharmacokinetic characteristics and bioavailability of test compounds in dogs were evaluated.
Test animals: twelve male beagles, 8-10 kg, 0.5-1.5 years old, purchased from Beijing Marshall Biotechnology Co. Ltd., with the production license number of SCXK (JING) 2016-001.
Vehicle for intravenous administration: 5% DMSO+5% Solutol+90% Saline; • vehicle for intragastric administration: 1% DMSO+1% Solutol+98% (0.5% MC);
(§1) Before and after the administration, 1.0 mL of blood was taken from the veins of the forelimbs and placed in an EDTAK2 centrifuge tube. The blood was centrifuged at 5000 rpm at 4° C. for 10 min, and plasma was collected. Time points for blood collection: 0 min, 5 min, 15 min, 30 min, 1 h, 2 h, 4 h, 6 h, 8 h, 10 h, 12 h and 24 h. Before analysis and detection, all plasma samples were stored at −80° C.

hERG potassium channel = hERG potassium channel (Homo sapiens, UniProt Q12809); assay: cell-based
Procedure: The effect of the example compounds on the current of an hERG potassium channel (human Ether-à-go-go Related Gene potassium channel) was tested by 10 means of an electrophysiological manual patch-clamp method.
HEK293 cell lines stably expressing hERG ion channels were purchased from Invitrogen.
A test compound was firstly dissolved in DMSO and prepared into a stock solution with a final concentration of 30 mM. […] Five working solutions with different gradient concentrations were used to determine the potential inhibitory effect of the compound on the hERG potassium channel and used to fit a dose-response curve and calculate IC50.
A small slide carrying HEK293 cells in a culture dish was placed in a perfusion tank on a micromanipulator. • 2. […] The peak value of the tail current was the magnitude of hERG currents. • 9 The hERG currents used to detect the test compounds were continuously recorded for 120 seconds prior to administration, thereby evaluating the stability of test cells generating hERG currents. […] The inhibitory effects of the test compounds on hERG currents were tested as follows: firstly, the hERG current measured in the extracellular fluid containing 0.1% DMSO was used as a test baseline. […] Upon completion of each perfusion, waiting about 5 min allowed the compounds to be fully acted on the cells, and the hERG currents were recorded synchronously. […]

[2] = target: T1, autocrine motility factor (Homo sapiens, UniProt Q13822); assay: Inhibition of LPA formation in mixed ex vivo human plasma; type: biochemical; settings: 37° C., 2 h
T1 construct: Whole blood was anticoagulated with heparin and centrifuged, and then plasma was collected; from tissue; host or cells: pooled human plasma (heparin-anticoagulated whole blood)
Procedure: Autocrine motility factor is a phosphodiesterase in plasma that converts lysophosphatidylcholine (LPC) to lysophosphatidic acid (LPA). Therefore, the formation of LPA can be used to evaluate the potency of an autocrine motility factor inhibitor. The potency of the compound in mixed ex vivo human plasma was evaluated.
Whole blood was anticoagulated with heparin and centrifuged, and then plasma was collected. 5 μL of gradient-diluted test compounds or DMSO was added to 95 μL of plasma and incubated at 37° C. for 2 h. After that, a stop buffer (40 mM disodium hydrogen phosphate buffer, containing 30 mM of citric acid, pH=4) was added. LPA in plasma was detected by LC-MSMS before and after incubation. In order to determine the concentration of LPA 18:2 or LPA 20:4 in the plasma in study, calibration standard substances at 20000 ng/mL, 10000 ng/mL, 5000 ng/ml, 2000 ng/ml, 1000 ng/mL, 500 ng/mL, 200 ng/ml, 100 ng/mL, 50 ng/ml, 20 ng/mL and 10 ng/ml for LPA 18:2 or LPA 20:4 were prepared by performing serial dilution in butanol. 3 μL of calibration standard solution was added to 27.0 μL of blank plasmas in each 1.5 mL microcentrifuge tube to produce 1× calibration standard substances. 30.0 μL of standard substances or plasma in study was added to each 1.5 mL microcentrifuge tube. 200 μL of butanol (containing 25.0 ng/mL LPA 17:0 for internal control) was added to each 1.5 mL microcentrifuge tube containing the plasma in study or calibration standard substance. Vortex oscillation was performed for 1 min, and centrifugation was performed at 10000 rpm for 10 min. 180 μL of the supernatant was transferred to a 96-well plate, and LC/MS/MS was used together with the standard substance to quantify the concentration of LPA 18:2 in the plasma. In short, 8 μL of the solution was injected, and LC-MS/MS analysis using an ACQUITY UPLC BEH C18 column (2.1×50 mm, 1.7 μm) was performed, wherein mobile phase A [20 mM NH4OAC aqueous solution (0.1% FA)] and mobile phase B [5 mM NH4OAC aqueous solution/0.2% FA in ACN=5:95] were used. The parameters of a mass spectrometer for LPA 18:2 were optimized by means of deprotonation of molecular ions. For LPA 18:2 at m/z 433.2([M−H]−), LPA 20:4 at 457.2, and LPA 18:2 and LPA 20:4 both at m/z 152.8, abundant product ions were obtained. Quantitative data were obtained in a multiple reaction monitoring (MRM) negative electrospray ionization mode.
The inhibition rates of compounds at different concentrations on LPA formation were determined by comparing the changes of LPA levels in incubated and unincubated plasma. The IC50 of the compounds was calculated as a calculation inhibition rate, and the relative concentration at each well=the concentration at each well−the average concentration at baseline.
Inhibition rate %=(average relative concentration at control well−average relative concentration at test well)/average relative concentration at control well×100%. The curve was plotted with the inhibition rates as a y axis and the compound concentrations as an x axis, and fitting was performed by GraphPad Prism7.0 using log (inhibitor) and normalized response (variable slope).

[3] = Pharmacokinetic test in monkeys; type: in vivo, Cynomolgus macaques; settings: male, cynomolgus monkey, plasma; for Cmax: read-out: C0 or Cmax
Procedure: Test objective: the pharmacokinetic characteristics and bioavailability of test compounds in monkeys were evaluated.
Test animals: twelve male Cynomolgus macaques, 2.4-5.9 kg, 3-5.5 years old, purchased from Suzhou Xishan Zhongke Laboratory Animal Co., Ltd., with the production license number of SCXK (SU) 2018-0001.
Vehicle for intravenous administration: 5% DMSO+5% Solutol+90% Saline; • vehicle for intragastric administration: 1% DMSO+1% Solutol+98% (0.5% CMC-Na)
as §1

[4] = Pharmacokinetic test in mice; type: in vivo; settings: male, C57, mouse, plasma; for Cmax: read-out: C0 or Cmax
Procedure: Test objective: the pharmacokinetic characteristics and bioavailability of test compounds in mice were evaluated.
Test animals: thirty-six C57 male mice, about 25 g, 6-8 weeks old, purchased from Chengdu Ddossy Experimental Animals Co., Ltd., with the production license number of SCXK (CHUAN) 2020-030.
Vehicle for intravenous administration: 5% DMA+5% Solutol+90% Saline; vehicle for intragastric administration: 0.5% MC
Before and after the administration, 0.06 mL of blood was taken from the orbits under isoflurane anaesthesia and placed in an EDTAK2 centrifuge tube. The blood was centrifuged at 5000 rpm at 4° C. for 10 min, and plasma was collected. Time points for blood collection: 0 min, 5 min, 15 min, 30 min, 1 h, 2 h, 4 h, 6 h, 8 h, 10 h and 24 h. Before analysis and detection, all plasma samples were stored at −80° C.

Chain of hERG potassium channel (Q12809 whole entry): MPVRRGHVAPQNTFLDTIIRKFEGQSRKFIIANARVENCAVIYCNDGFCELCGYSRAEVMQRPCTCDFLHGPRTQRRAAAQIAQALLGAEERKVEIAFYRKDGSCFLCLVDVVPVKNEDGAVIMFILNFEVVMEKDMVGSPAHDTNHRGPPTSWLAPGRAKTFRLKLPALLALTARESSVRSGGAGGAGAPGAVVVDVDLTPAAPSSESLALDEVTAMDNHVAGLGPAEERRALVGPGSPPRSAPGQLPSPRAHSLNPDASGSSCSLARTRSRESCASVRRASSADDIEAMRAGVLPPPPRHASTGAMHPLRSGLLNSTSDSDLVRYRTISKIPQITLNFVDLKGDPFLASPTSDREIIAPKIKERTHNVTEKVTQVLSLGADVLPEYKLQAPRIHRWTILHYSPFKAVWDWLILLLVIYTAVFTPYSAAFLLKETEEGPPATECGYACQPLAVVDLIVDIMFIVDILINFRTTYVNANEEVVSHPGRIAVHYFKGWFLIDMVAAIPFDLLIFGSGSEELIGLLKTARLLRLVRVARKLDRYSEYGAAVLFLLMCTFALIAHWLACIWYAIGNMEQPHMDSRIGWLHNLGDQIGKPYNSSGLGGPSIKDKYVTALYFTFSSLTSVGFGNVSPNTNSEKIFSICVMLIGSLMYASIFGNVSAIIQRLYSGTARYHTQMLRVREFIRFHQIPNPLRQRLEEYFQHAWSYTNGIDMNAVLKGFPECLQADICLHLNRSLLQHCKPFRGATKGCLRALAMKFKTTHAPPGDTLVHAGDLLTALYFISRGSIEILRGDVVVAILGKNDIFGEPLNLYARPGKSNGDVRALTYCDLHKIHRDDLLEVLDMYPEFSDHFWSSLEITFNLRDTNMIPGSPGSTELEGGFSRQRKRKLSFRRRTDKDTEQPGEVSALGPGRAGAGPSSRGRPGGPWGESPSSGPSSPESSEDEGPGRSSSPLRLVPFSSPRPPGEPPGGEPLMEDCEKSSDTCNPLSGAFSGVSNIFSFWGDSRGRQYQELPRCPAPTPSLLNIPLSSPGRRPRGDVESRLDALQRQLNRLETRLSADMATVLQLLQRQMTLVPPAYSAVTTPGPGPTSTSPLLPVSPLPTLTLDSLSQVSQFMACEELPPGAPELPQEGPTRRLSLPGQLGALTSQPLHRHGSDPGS

SMILES: [2H]C([2H])([2H])N(c1nc(-c2ccc(F)cc2)c(C#N)s1)c1c(CC)nn2cc(F)c(N3CCN(CC(=O)N4CC(O)C4)CC3)cc12 [Compound 3, 2-((2-ethyl-6-fluoro-5-(4-(2-(3-hydroxyazetidin-1-yl)-2-oxoethyl)piperazin-1-yl)pyrazolo[1,5-a]pyridin-3-yl)(methyl-d3)amino)-4-(4-fluorophenyl)thiazole-5-carbonitrile]
- AUC ([1]; IV 1 mg/kg): 6840 ± 883 ng·h/mL
- half-life ([1]; IV 1 mg/kg): 6.96 ± 1.5 h
- Cmax ([1]; IV 1 mg/kg): 1490 ± 451 ng/mL
- AUC ([1]; PO 2 mg/kg): 15900 ± 2980 ng·h/mL
- Tmax ([1]; PO 2 mg/kg): 1.67 ± 0.58 h
- half-life ([1]; PO 2 mg/kg): 7.19 ± 0.75 h
- bioavailability ([1]; PO 2 mg/kg vs IV 1 mg/kg): 116 ± 22%
- Cmax ([1]; PO 2 mg/kg): 1620 ± 176 ng/mL
- IC50 (hERG potassium channel): 23100 nM
- IC50 ([2]; LPA 18:2 by LC-MS/MS, read-out: IC50 for inhibiting LPA formation (18:2)): 42.7 nM
- IC50 ([2]; LPA 20:4 by LC-MS/MS, read-out: IC50 for inhibiting LPA formation (20:4)): 44.5 nM
- AUC ([3]; IV 1 mg/kg): 2010 ± 621 ng·h/mL
- half-life ([3]; IV 1 mg/kg): 2.96 ± 1 h
- Cmax ([3]; IV 1 mg/kg): 1040 ± 116 ng/mL
- AUC ([3]; PO 5 mg/kg): 3120 ± 492 ng·h/mL
- Tmax ([3]; PO 5 mg/kg): 1.33 ± 0.58 h
- half-life ([3]; PO 5 mg/kg): 4.02 ± 0.59 h
- Cmax ([3]; PO 5 mg/kg): 657 ± 170 ng/mL
- AUC ([4]; IV 1 mg/kg): 1490 ng·h/mL
- half-life ([4]; IV 1 mg/kg): 1.56 h
- Cmax ([4]; IV 1 mg/kg): 1110 ng/mL
- AUC ([4]; PO 10 mg/kg): 9600 ng·h/mL
- Tmax ([4]; PO 10 mg/kg): 0.25 h
- half-life ([4]; PO 10 mg/kg): 2.14 h
- bioavailability ([4]; PO 10 mg/kg vs IV 1 mg/kg): 64.5%
- Cmax ([4]; PO 10 mg/kg): 1300 ng/mL
